Reference: US20170281566A1, “COMBINATIONS OF LSD1 INHIBITORS FOR THE TREATMENT OF HEMATOLOGICAL MALIGNANCIES” (HOFFMANN-LA ROCHE INC., priority 2016, published 2017)

Tests used:
Assay type in all cases: cell-based
MOLT4 cells = test: Viability assay (10 days), Alamar Blue, single agent
Experimental: MOLT4 cells were maintained in RPMI 10% FBS medium at 37° C. in a humidified incubator with controlled 5% CO2 atmosphere. Cell freezing and thawing was performed following recommendation from ATCC. Genetic profiling of the cell lines used is available in table 4.
2.1.2 Viability Assays (10 Days)
Three wells were reserved for each experimental condition; medium-only and vehicle-treated controls were also added for background correction and normalization respectively. After seeding, 50 μL of medium containing 8 1:3 serial dilution of ORY-1001 were added to the cells (range 0.015-100 nM). Cells were then incubated for 6 days at 37° C. in a controlled 5% CO2 atmosphere. On the sixth day, 1004, of medium with serial dilutions of ORY-1001 (as described previously) or vehicle were added to the cells. Medium without compound (100μ) was added to background control.
After 4 additional days of incubation, cell viability was evaluated using the Alamar Blue® staining as detailed in the section 1.1.2.

THP-1 cells = test: Viability assay (96 hours), Alamar Blue, single agent
Experimental: (§1) AML cell lines were maintained in RPMI 10% FBS medium at 37° C. in a humidified incubator with controlled 5% CO2 atmosphere. Cell freezing and thawing was performed following recommendation from ATCC. Genetic profiling of the cell lines used is available in table 2. […] Three wells were reserved for each experimental condition; medium-only and vehicle-treated controls were also added for background correction and normalization respectively. […] Alamar Blue® is a cell viability indicator that uses the natural reducing power of living cells to convert resazurin to the fluorescent molecule, resorufin^43.

OCI-AML3 cells = test: as above
Experimental: as §1

KASUMI-1 cells = test: as above
Experimental: as §1

MOLM-13 cells = test: as above
Experimental: as §1

MV(4;11) cells = test: as above
Experimental: as §1

HL-60 cells = test: as above
Experimental: as §1

OCI-AML2 cells = test: as above; conditions: Homo sapiens, OCI-AML2, 96 h, read-out: EC50 (viability)
Experimental: as §1

| EC50 (viability) (MOLT4 cells; MOLT4, 10 days of treatment, single agent) | EC50 (viability) (THP-1 cells; THP-1, 96 hours, single agent) | EC50 (viability) (OCI-AML3 cells; OCI-AML3, 96 hours, single agent) | EC50 (viability) (MOLM-13 cells; MOLM-13, 96 hours, single agent) | EC50 (viability) (HL-60 cells; HL-60, 96 hours, single agent) | SMILES | Effect on viability of MOLT-4 cells (MOLT4 cells; shorter treatment (96 hours), data not shown) | EC50 (viability) (KASUMI-1 cells; KASUMI-1, 96 hours, single agent) | EC50 (viability) (MV(4;11) cells; MV(4;11), 96 hours, single agent) | EC50 (OCI-AML2 cells) [nM] | EC50 (THP-1 cells; Homo sapiens, THP-1, 96 h, read-out: EC50 (viability)) [nM] | EC50 (OCI-AML3 cells; Homo sapiens, OCI-AML-3, 96 h, read-out: EC50 (viability)) [nM] | EC50 (KASUMI-1 cells; Homo sapiens, Kasumi 1, 96 h, read-out: EC50 (viability)) [nM] | EC50 (MOLM-13 cells; Homo sapiens, MOLM-13, 96 h, read-out: EC50 (viability)) [nM] | EC50 (MV(4;11) cells; Homo sapiens, MV4-11, 96 h, read-out: EC50 (viability)) [nM] | EC50 (HL-60 cells; Homo sapiens, HL-60, 96 h, read-out: EC50 (viability)) [nM] |
| --- | --- | --- | --- | --- | --- | --- | --- | --- | --- | --- | --- | --- | --- | --- | --- |
| sub-nanomolar | sub-nanomolar | sub-nanomolar | sub-nanomolar | sub-nanomolar | N[C@H]1CC[C@H](N[C@@H]2C[C@H]2c2ccccc2)CC1 [ORY-1001, (trans)-N1-((1R,2S)-2-phenylcyclopropyl)cyclohexane-1,4-diamine] | not affecting the viability | sub-nanomolar | sub-nanomolar |  |  |  |  |  |  |  |
|  |  |  |  |  | O=C(CCCCCCNC(=O)c1cnc(N(c2ccccc2)c2ccccc2)nc1)NO [Rocilinostat, Ricolinostat, reference compound] |  |  |  | 500 to 3000 | 500 to 3000 | 500 to 3000 | 500 to 3000 | 500 to 3000 | 500 to 3000 | 500 to 3000 |
